Assay results from patent publication US20190083497A1, “MODULATION OF BLOOD BRAIN BARRIER PERMEABILITY” (Cornell University, priority 2008, published 2019).

What was measured:
Type in all cases: in vivo, mouse
EAE-induced mice = assay: EAE induction and scoring (MOG35-55/CFA + pertussis toxin); conditions: wild type mice; 2 mg/kg (1 mg/kg s.c. and 1 mg/kg i.p.) in 45% DMSO, 1 day prior to and daily for 30 days; vs DMSO alone
Method: C57BL/6 and tcrα^−/− mice on the C57BL/6 background were purchased from The Jackson Laboratories. Mice were bred and housed under specific pathogen-free conditions at Cornell University or the University of Turku. For adenosine receptor blockade experiments, mice were given drinking water supplemented with 0.6 g/L of caffeine (Sigma) or 2 mg/kg SCH58261 (1 mg/kg s.c. and 1 mg/kg i.p.) in DMSO (45% vol. in PBS) or 45% DMSO alone starting 1 day before EAE induction and continuing throughout the experiment. All procedures performed on mice were approved by the relevant animal review committee.
EAE was induced by subjecting mice to the myelin oligodendrocyte glycoprotein (“MOG”) EAE-inducing regimen as described in Swanborg, “Experimental Autoimmune Encephalomyelitis in Rodents as a Model for Human Demyelinating Disease,” Clin. Immunol. […] Briefly, a 1:1 emulsion of MOG35-55 peptide (3 mg/ml in PBS) (Invitrogen) and complete Freund's adjuvant (CFA, Sigma) was injected subcutaneously (50 μl) into each flank. Pertussis toxin (PTX, 20 ng) (Biological Laboratories Inc.) was given intravenously (200 μl in PBS) at the time of immunization and again 2 days later. Mice were scored daily for EAE based on disease symptom severity; 0=no disease, 0.5 -1=weak/limp tail, 2=limp tail and partial hind limb paralysis, 3=total hind limb paralysis, 4=both hind limb and fore limb paralysis, 5=death. Mice with a score of 4 were euthanized.
Wild type mice were given 1 mg/kg of SCH58261 in DMSO or DMSO alone both i.p. and s.c. (for a total of 2 mg/kg) 1 day prior to EAE induction and daily for 30 days throughout the course of the experiment (FIG. 7C).

[1] = system: CNS lymphocyte infiltration; assay: CD4+ infiltrating lymphocytes in brain and spinal cord after EAE induction (immunohistochemistry); conditions: wild type mice, day 15 post-EAE induction; 2 mg/kg daily; vs DMSO treated mice
Method: FIGS. 7A-7D show adenosine receptor blockade protects mice from EAE development. […] Results are from one experiment (n=5 mice per group). […] Samples were run in triplicate; error bars represent the standard error of the mean. […] Eight anatomically similar fields per brain and 4 fields per spinal cord per mouse were analyzed at 10×magnification (n=4 mice). Error bars represent the standard error of the mean.
Anesthetized mice were perfused with PBS, and brains, spleens, and spinal cords were isolated and snap frozen in Tissue Tek-OCT medium. Five μm sections (brains in a sagittal orientation) were affixed to Supefrost/Plus slides (Fisher), fixed in acetone, and stored at −80° C. […]
(§1) As CD73 catalyzes the breakdown of AMP to adenosine and ARs are expressed in the CNS (Tsutsui et al., “A1 Adenosine Receptor Upregulation and Activation Attenuates Neuroinflammation and Demyelination in a Model of Multiple Sclerosis,” J. Neurosci. 24:1521-1529 (2004)); Rosi et al., The Influence of Brain Inflammation Upon Neuronal Adenosine A2B Receptors,” J. Neurochem. 86:220-227 (2003), which are hereby incorporated by reference in their entirety), it was next determined if AR signaling is important during EAE progression. […] Since CD73 is highly expressed on the choroid plexus (FIG. 6C), it was next determined if ARs are also expressed on the choroid plexus. […]

ICAM-1 = ICAM-1 expression at the choroid plexus after EAE induction (immunohistochemistry); conditions: wild type mice, day 15 post-EAE induction; 2 mg/kg daily; vs DMSO
Method: Mice were treated with the A2a adenosine receptor antagonist SCH58261 2 mg/kg (1 mg/kg given s.c. and 1 mg/kg given i.p.) in DMSO (n=4 mice/group) or DMSO alone (n=5 mice/group) 1 day prior to and daily up to day 30 following EAE induction. […] Frozen tissue sections from day 15 post-EAE induction in SCH58261 and DMSO treated mice were examined for ICAM-1 expression at the choroid plexus. WT treated DMSO (left) or SCH58261 (right) and stained for ICAM-1 (red staining, white arrows) and DAPI (blue, nuclei) at 40× magnification. Images are from 4 separate mice.
Anesthetized mice were perfused with PBS, and brains, spleens, and spinal cords were isolated and snap frozen in Tissue Tek-OCT medium. […]
as §1

blood brain barrier = assay: FITC-Dextran extravasation through the brain endothelium; conditions: wild type mice (FIG. 16)
Method: In order to examine the effects of caffeine, a general adenosine receptor antagonist, on blood brain barrier permeability, mice were fed caffeine for several days and then injected with FITC Dextran, commonly used to assess endothelial permeability.
More particularly, mice were fed 0.6 g/l caffeine (Sigma, St. Louis, Mo.) in water or regular water ad lib for five days. Mice were injected IP with FITC Dextran (10,000 MW, Molecular Probes, Eugene, Oreg.) and after 30 minutes mice were perfused with ice cold PBS via the left ventricle. Brains were removed and snap frozen in OCT (Tissue Tek, Torrance, Calif.) and stored at −80° C. until sectioning. Tissue sections (5 μm) were stained with hematoxylin for light microscopy and with DAPI for a fluorescent counterstain.

Compound: Nc1nc2c(cnn2CCc2ccccc2)c2nc(-c3ccco3)nn12 [SCH58261]
- EAE development (mean EAE score) (EAE-induced mice): dramatically protected against EAE development
- frequency of CD4 lymphocytes in the brain and spinal cord [1]: significantly lower frequency of CD4 lymphocytes in the brain and spinal cord
- ICAM-1 up regulation on the choroid plexus (ICAM-1): prevented the up regulation of ICAM-1
- FITC-Dextran extravasation across the blood brain barrier (blood brain barrier): inhibit FITC-Dextran extravasation
